For data set [1], the target named is T1, Sulf-1 (Homo sapiens, UniProt Q8IWU6). The data set is described as follows: HPLC assay of sulfate ion release from the substrate by Sulf-1. To be noted: substrate 480 μM, treated with human Sulf-1, HPLC.
Experimental: (§1) HPLC assay. […] Release of the sulfate ion from the substrate was quantified via HPLC. Each sample (5 μL) was injected to AS9HC anion-exchange column (Dionex), and the sulfate ion was eluted by 9 mM Na2CO3 then analyzed by a conductivity detector (PROD, AERS500, 4 mm, Thermal) with reagent-free controller (PROD, RFC-10) and compared with a standard curve with Na2SO4 (Merck) from 0 to 500 μM.
Data set [2] addresses T1, Sulf-1. The data set is described as follows: Competition assay with 4-MUS substrate (fluorogenic). The format is biochemical. On the set-up: made in house. To be noted: for EC50: competition with 4-MUS for Sulf-1. The protocol:
Competition assay with 4-MUS substrate. […] A control mixture without the competing substrate was defined as 100% fluorescent intensity, and the sample with substrate was determined as percentage of fluorescent intensity: (Fluorescent intensity of substrate sample)/(Fluorescent intensity of control sample).
HS oligosaccharides of Example 1.2 were used as competing substrates in the presence of 4-MUS for the identification of Sulf-1 substrate. Compounds 18-20 as well as the commercially available heparin 3000 were independently assessed for their competing effect on 4-MUS cleavage by Sulf-1 to yield the fluorescent 4-methylumbelliferone (4-MU) (FIG. 1, (A)).

Data set [3] has as its target T1, Sulf-1. The data set is described as follows: Sulf-1 inhibition assay (4-MU released from 4-MUS).
Text: Sulf-1 inhibition assay. […] The data obtained were fitted to the Michaelis-Menten equation using the GraphPad to determine the enzyme inhibition parameters.
Data set [4] addresses T2, human Sulf-1d417-726 (Homo sapiens, UniProt Q8IWU6, DEL417-726).
T2 construct: made in house
The experiment in a line: Determination of dissociation constant (KD) using surface plasmon resonance. The format is binding. The conditions noted are these: compound immobilized on CM5 sensor chip, 1:1 Langmuir model. The protocol: Determination of dissociation constant (KD) using surface plasmon resonance. Compound 46 was immobilized on the surface of a Biacore sensor chip (GE Healthcare) according to the manufacturer's guidelines using Biacore T200 system. The kinetic analysis study was performed at different concentrations of hSulf1d417-726 protein upon serial dilution to 250, 125, 63, 31 and 15 nM in running buffer [20 mM NaOAc (pH 5.0), 150 mM NaCl, and 0.05% Tween 20] and injected on to the chip surface with a flow rate of 25 μL/min at 25° C. In each run, the chip sensor surface was regenerated by injecting 4 M NaCl. The titration curves fit well to a 1:1 Langmuir binding model for calculations of equilibrium constants.
With highest inhibitory activity, the binding affinity of the inhibitor 46 with human Sulf-1 was further measured by surface plasmon resonance (SPR). The hydrophilic domain-deleted mutant of Sulf-1, namely human Sulf-1d417-726, lacking two furin-type proteinase cleavage sites responsible for forming the disulfide-bonded heterodimers of 75- and 50-kDa subunits with retained enzyme activity was constructed according to the literature report. Compound 46 was immobilized on the CM5 sensor chip, and aliquots of human Sulf-1d417-726 at gradient concentrations were applied onto the chip.
(In general: SPR reads the build-up and loss of mass on a sensor chip optically.)

Data set [5] deals with NCCCCCO[C@@H]1OC(C(=O)O)C(O[C@H]2OC(COS(=O)(=O)O)[C@@H](O[C@@H]3OC(C(=O)O)C(O)[C@@H](O)C3OS(=O)(=O)O)[C@H](O)C2NS(=O)(=O)O)[C@@H](O)C1OS(=O)(=O)O. The data set is described as follows: purified protein, by the assay type. The conditions noted are these: other: released sulfate at different substrate concentrations; pH 7.4; 37.0 °C.
Experimental: as §1

“Also recorded” adds a separate entry of the source.

For `NCCCCCO[C@@H]1OC(C(=O)O)C(O[C@@H]2OC(COS(=O)(=O)O)[C@@H](O)C(O)C2NS(=O)(=O)O)[C@@H](O)C1OS(=O)(=O)O` (stereo partly drawn) [Compound 18], in data set [1], the “sulfate concentration upon hydrolysis by Sulf-1” value amounted to 5.9 µM. Besides, in data set [2] (competitor 320 μM, 4-MUS 4.35 mM, 4-MUS with Sulf-1 in pure water = 100%), the “fluorescence intensity (4-MUS hydrolysis, % of control)” value is on record as 94.5%. Take `NCCCCCO[C@@H]1O[C@@H](C(=O)O)[C@@H](O[C@H]2O[C@H](COS(=O)(=O)O)[C@@H](O[C@@H]3O[C@@H](C(=O)O)[C@@H](O[C@H]4O[C@H](COS(=O)(=O)O)[C@@H](O)[C@H](O)[C@H]4NS(=O)(=O)O)[C@H](O)[C@H]3OS(=O)(=O)O)[C@H](O)[C@H]2NS(=O)(=O)O)[C@H](O)[C@H]1OS(=O)(=O)O` [Compound 19]: the “sulfate concentration upon hydrolysis by Sulf-1” value in data set [1] came to 46.2 µM. Besides, a half-maximal response in data set [2] (EC50) required 87800 nM. The “competing effect on 4-MUS cleavage by Sulf-1 (in words)” value in data set [2] (competitor 320 μM (0.32 mM), 4-MUS 4.35 mM) is “strongly compete with 4-MUS; also recorded: good binder”. On to `NCCCCCO[C@@H]1OC(C(=O)O)C(O[C@H]2OC(COS(=O)(=O)O)[C@@H](O[C@@H]3OC(C(=O)O)C(O)[C@@H](O)C3OS(=O)(=O)O)[C@H](O)C2NS(=O)(=O)O)[C@@H](O)C1OS(=O)(=O)O` (stereo partly drawn) [Compound 36], for which, in data set [2], the midpoint of the response, the EC50, lay at 3800 nM. Turning to `NCCCCCO[C@@H]1OC(C(=O)O)C(O[C@H]2OC(COS(N)(=O)=O)[C@@H](O)C(O)C2NS(=O)(=O)O)[C@@H](O)C1OS(=O)(=O)O` (stereo partly drawn) [Compound 45], the inhibition at 700 µM in data set [3] (read-out: Sulf-1 activity inhibited) came to 20%. As to `NCCCCCO[C@@H]1O[C@@H](C(=O)O)[C@@H](O[C@H]2O[C@H](COS(N)(=O)=O)[C@@H](O[C@@H]3O[C@@H](C(=O)O)[C@@H](O)[C@H](O)[C@H]3OS(=O)(=O)O)[C@H](O)[C@H]2NS(=O)(=O)O)[C@H](O)[C@H]1OS(=O)(=O)O` [Compound 46], in data set [3], the IC50 – broadly, the concentration at which inhibition is half-maximal – turned out to be 530 nM and the inhibition constant Ki – broadly, a dissociation constant, usually derived from enzyme kinetics or from competition with a known ligand – was determined as 360 nM. For the same molecule, binding in data set [4] was characterised by a dissociation constant (Kd) of 12 nM. `NCCCCCO[C@@H]1O[C@@H](C(=O)O)[C@@H](O[C@H]2O[C@H](COS(N)(=O)=O)[C@@H](O[C@@H]3O[C@@H](C(=O)O)[C@@H](O[C@H]4O[C@H](COS(N)(=O)=O)[C@@H](O)[C@H](O)[C@H]4NS(=O)(=O)O)[C@H](O)[C@H]3OS(=O)(=O)O)[C@H](O)[C@H]2NS(=O)(=O)O)[C@H](O)[C@H]1OS(=O)(=O)O` [Compound 47]: the half-maximal inhibitory concentration (IC50) in data set [3] stood at 29600 nM. In the case of human Sulf-1 (Homo sapiens), in data set [5], the Michaelis-Menten constant (Km) (as a rule, the substrate concentration at which the rate is half of its maximum) was determined as 25.8 µM.

(Values after patent publication US11332490B1, “Compounds and methods for treating osteoarthritis” (Academia Sinica, priority 2021, dated 2022).)
